In PMC8778681, “Crystal Structure, Solubility, and Pharmacokinetic Study on a Hesperetin Cocrystal with Piperine as Coformer” (Pharmaceutics, 2022):
In brackets after ≈: the same amount, converted by molar mass.

Columns and labels:
[1] = Bioavailability / pharmacokinetics after oral gavage in rats; format: in vivo; conditions: Sprague-Dawley, 80 mg/kg, HES in rat plasma, equivalent to 80 mg HES/kg
Experimental: Eighteen Sprague–Dawley rats weighing 220–250 g were randomly divided into three groups (n = 6), fasted for 12 h but freely given water before the experiment. The HES, the physical mixture of HES and PIP, and the HES–PIP cocrystal were delivered by gavage at a dose equivalent to 80 mg of the HES/kg body weight of the animal as a suspension in water. Next, 500 µL blood was withdrawn and placed in a centrifuge tube with heparin from the eye sockets of rats at 0.25 h, 0.5 h, 1 h, 2 h, 4 h, 6 h, 8 h, 12 h, 24 h, and 48 h after oral administration. The plasma was separated by centrifugation (4000 rpm, 15 min) and saved at −80 °C until analysis. Next, 100 µL of plasma sample was added into 400 μL of methanol and vortexed for 5 min to fully precipitate the protein [44], then centrifuged at 10,000 rpm for 10 min. The supernatant was then transferred to another tube and evaporated to remove the solvent under a stream of nitrogen. The residual solid was then dissolved in methanol with vortex oscillation for 3 min, and the mixture was centrifuged at 10,000 rpm for 10 min. Finally, the supernatant was analyzed via HPLC method for HES content. PK parameters were obtained on the basis of a model-independent method using DAS 2 program.

[2] = Solubility experiment in simulated gastrointestinal fluid; format: physicochemical; conditions: thermodynamic from solid, 100 rpm
Experimental: The solubility of the HES–PIP cocrystal in simulated gastrointestinal fluid was measured in the present study following the method described in the literature but slightly modified. The samples were previously milled and sieved (75–150 μm) before examination to reduce the effect of the crystal’s size on its solubility behavior. A specific amount (containing 25 mg of HES) of the HES–PIP cocrystal was weighed and added into a centrifuge tube containing 5 mL dissolving medium, and the suspension was incubated at 37 ± 0.2 °C rotating at 100 rpm. Taking a tube at 0.25 h, 0.5 h, 1 h, 2 h, 4 h, 6 h, 8 h, 12 h, 24 h, and 48 h, the samples were centrifuged at 12,000 rpm for 5 min, and the supernatant was diluted with methanol and analyzed by HPLC. The cocrystal’s solubility at different times was compared with that of raw HES. […] The residual solid in each tube was also analyzed by PXRD.
The cocrystal’s supersaturation factor (SF) was calculated through the drug supersaturation–time curve following the method presented in a previous study, and the calculation formula is as follows:(1) SF=AUC0.25−48 h(Cocrystal)/AUC0.25−48 h(Hesperetin) where SF is the supersaturation factor, AUC0.25–48 h (Cocrystal) is the area under the curve of the cocrystal supersaturation–time profile, and AUC0.25–48 h (Hesperetin) is the area under the curve for a saturated solution.

With `COc1ccc([C@@H]2CC(=O)c3c(O)cc(O)cc3O2)cc1O` [HES, ((S)-2,3-dihydro-5,7-dihydroxy-2-(3-hydroxy-4 methoxy-phenyl)-4H-1-benzopyran-4-one)] the AUC(0-t) ([1]; n = 6) was 530 ng·h/mL, the Tmax ([1]; n = 6) was 0.5 h and the half-life ([1]; n = 6) was 3.01 h. The MRT last ([1]; n = 6, read-out: MRT(0–t)) was 5.86 h, the Cmax ([1]; suspension in water, n = 6) was 120 ng/mL and the solubility ([2]; fassgf or other biorelevant, simulated gastrointestinal fluid pH 6.8, 37 °C, HES–PIP maximum at 6 h) was 21.1 µg/mL (≈ 69.9 µM). The solubility ([2]; simulated gastric fluid, simulated gastrointestinal fluid pH 1.2, 37 °C, HES–PIP maximum at 8 h) was 23.1 µg/mL (≈ 76.5 µM).
